Where two headings read alike, the source gives them in different places.
Tests used:
[1] = target: T1, CesA6 central cytoplasmic domain (Arabidopsis thaliana, UniProt Q94JQ6); experiment: biochemical; assay type: binding; details: MST; SUMO-His / GFP tagged CesA6 central cytoplasmic domain purified from E. coli; read-out: dissociation constant (Kd)
T1 construct: we expressed and purified the central cytoplasmic domain of CesA6 from E. coli; made in house; host or cells: E. coli
T1 sequence (Q94JQ6 322-868 limits assumed): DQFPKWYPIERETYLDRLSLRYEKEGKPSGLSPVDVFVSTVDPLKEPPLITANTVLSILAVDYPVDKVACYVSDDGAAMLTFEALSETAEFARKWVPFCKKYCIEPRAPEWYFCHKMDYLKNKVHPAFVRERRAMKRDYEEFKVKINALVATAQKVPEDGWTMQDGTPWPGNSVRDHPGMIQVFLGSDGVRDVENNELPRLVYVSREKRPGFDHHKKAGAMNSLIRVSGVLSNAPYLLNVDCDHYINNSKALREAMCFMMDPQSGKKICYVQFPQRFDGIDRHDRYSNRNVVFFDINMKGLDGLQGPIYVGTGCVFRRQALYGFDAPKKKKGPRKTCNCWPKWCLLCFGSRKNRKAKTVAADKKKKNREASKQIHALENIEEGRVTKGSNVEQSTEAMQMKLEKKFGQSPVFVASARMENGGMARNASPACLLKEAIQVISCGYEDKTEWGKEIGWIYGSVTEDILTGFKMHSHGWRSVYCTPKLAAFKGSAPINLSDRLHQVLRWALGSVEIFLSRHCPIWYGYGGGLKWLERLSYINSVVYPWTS

[2] = system: wildtype Arabidopsis seedlings; experiment: Arabidopsis seedling root growth on media supplemented with compound; assay type: in vivo, Arabidopsis thaliana; details: for activity at 1 µM: Arabidopsis thaliana
Protocol: FIG. 2A. […] FIG. 2B. […] FIG. 2C. Quantification on the root length of 6 days old wildtype and mutant seedlings grown on growth media supplemented with DMSO solvent control. FIG. 2D. […] FIG. 2E. The ratio of root length from plants grown on 1 μM ES20 and those grown on DMSO for each genotype. The root length of wildtype plants grown on 1 μM ES20 was reduced to about 25% of those grown on DMSO. […] FIG. 2F.
The root length of wildtype plants grown on 1 μM ES20 is about 20% of those that are grown on normal media.
Individual hypocotyl epidermal cells from plants grown on ES20 media are swollen as well in compare with those grown on regular media (FIG. 1H). These growth assays indicate that ES20 inhibits cell growth and causes cells to grow in an isotropic manner instead of anisotropic manner. The composition and organization of cell wall determines plant cell shapes.
In order to identify the cell growth pathways that are targeted by ES20, we performed a chemical genetic screen for mutants that have reduced sensitivity to this growth inhibitor. […] However, we found plants that have normal green cotyledons and leaves and elongated roots. These plants became obviously heathier and stronger than other plants after two weeks of growth on ES20 and were transferred to soil to get the M3 population. […] We generated the mapping population and used high-throughput whole genome sequencing to clone the mutant genes. […] 10 out of the 12 mutants were in CesA6 and two in CesA7. After two times of backcrosses, we consistently detected less sensitivity in these mutants to ES20 (FIGS. 2A to 2E).
In order to identify key structure in ES20 that causes its inhibition activity, we collected three close analogs of ES20 (FIG. 7A) and tested for their effect in inhibiting plant growth.

[3] = system: dark-grown Arabidopsis hypocotyls; experiment: crystalline cellulose content in dark-grown seedlings; assay type: in vivo, Arabidopsis thaliana; details: concentration printed as 'M ES20'
Description: Swollen cells and organs in plants are often caused by direct or indirect disruption of cell wall biosynthesis or organization. For example, swollen cells and roots have been found in cesa mutants and in plants treated with inhibitors of cellulose synthesis and microtubule organization (Arioli, T., et al., Science 1998, 279, 717-720; Burn, J. E., et al., Plant Physiol. 2002, 129, 797-807). The retarded growth and cell swollen phenotypes indicate that ES20 could affect cell growth through interfering with cell wall biosynthesis or organization. To test whether ES20 affects cell wall composition, we took the straightforward approach of analyzing crystallize cellulose content in seedlings grown in the presence of different concentrations of ES20 (Updegraff, D. M. Anal. Biochem. 1969, 32, 420-424). […] The content of crystalline cellulose in seedlings grown on M ES20 was reduced to about 50% of the seedlings grown in the absence of ES20 (FIG. 1J).

tomato = tomato growth on media containing ES20; assay type: in vivo; details: grown on growth media containing ES20
Description: (§1) FIG. 8B depicts 16-day-old tomato and horseweed grown on the media in the absence and presence of Cellulosin. Bars, 1 cm.
(§2) Because cellulose synthase is highly conserved in plants and ES20 targets the conserved catalytic domain, we hypothesize that ES20 is active in different plants, including common weeds. We tested this hypothesis by growing tomato and horseweed on growth media containing ES20.

horseweed = horseweed growth on media containing ES20; assay type: in vivo; details: grown on growth media containing ES20
Description: as §1, §2

tobacco pollen tube = experiment: tobacco pollen growth assay; assay type: cell-based; details: in vitro culture
Protocol: (§3) In order to identify small molecules that could be used in studying plant membrane trafficking, chemical libraries have been screened first using tobacco pollen growth assay and then Arabidopsis live cell imaging assay (Drakakaki G. et al., Proc Natl Acad Sci USA 2011, 108, 17850-17855). In primary screen, small molecules that inhibited pollen gemination or pollen tube growth in in vitro culture condition were selected. For secondary screen, selected small molecules were tested in Arabidopsis plants expressing different fluorescence-tagged cellular markers. […] Locations of general organelle markers, such as HDEL-GFP (Endoplasmic Reticulum, ER), Gop1p-YFP (Golgi), SYP61-CFP (Trans-Golgi Network, TGN) and VHA1-GFP (TGN), are unaffected as well by ES20 treatment (FIGS. 9A and 9B).

[4] = system: general membrane trafficking (PIN2, BRI1, HDEL-GFP, Gop1p-YFP, SYP61-CFP, VHA1-GFP); experiment: live cell imaging of fluorescence-tagged cargo and organelle markers; assay type: cell-based, Arabidopsis
Protocol: Transgenic plants expressing different fluorescence-tagged proteins were examined for their cellular localization in the DMSO control treatment and after 2 hours of 5 μM ES20 treatment.
as §3

[5] = system: CSC (YFP-CesA6) trafficking in root epidermal cells; experiment: YFP-CesA6 localization and FRAP after short-term ES20 treatment; assay type: cell-based, Arabidopsis
Description: FIGS. 5A and 5B. […] FIGS. 5C and 5D. […] FIGS. 5E and 5F. The exocytic delivery of CSC to the plasma membrane was reduced after ES20 treatment. *** indicates p<0.001 by paired t-test.
A large knowledge gap in plant biology is that it is […] how the activities of large protein complexes, such as CSC, are integrated with their cellular transport. Golgi localized CSCs are delivered to the plasma membrane to catalyze cellulose synthesis. CSCs are also localized to some small vesicles named SmaCCs. It is not known what occurs to CSCs when the catalytic core fails to bind a functional substrate. In order to understand better on the integration of CSC catalytic activity and CSC trafficking, we took a straight approach and observed the localization of CesA6 after short-term ES20 treatment. […] Reduced CSC density at the plasma membrane and increased SmaCCs density could be the result of increased endocytosis or decreased exocytic delivery of CSC. We then performed fluorescence recovery after photobleaching experiment to test whether the exocytic delivery of CSC was affected by ES20 treatment. We bleached YFP-CesA6 fluorescence at the plasma membrane and then observed the delivery of new CSC to the plasma membrane (FIG. 5D).

[6] = system: cesa6 E929K mutant and transgenic plants that express CesA6 E929K in wildtype; experiment: root growth of cesa6 E929K mutant and CesA6 E929K transgenic plants; assay type: in vivo; details: Arabidopsis thaliana; 1 μM of ES20; read-out: root length relative to plants grown on normal media
Description: The root length of […] mutant and transgenic plants that express CesA6^E929K in wildtype is about 80% of those grown on normal media.
The mutations we found are located in Arabidopsis thaliana CesA6 (AT5G64740), CesA4 (AT5G44030), CesA7 (AT5G17420) and CesA8 (AT4G18780) genes. Single nucleotide change in these mutants causes single amino acid change in CesA proteins and lead to reduced sensitivity to cellulosin (endosidin20 or ES20). The mutations we have discovered are listed in Table 1 and FIG. 11A showing the conserved amino acid residues of those subtypes of cellulose synthases. […] One is to create mutations in CesA6 homology gene in crop. The second is to express the mutant CesA6 in crops without knocking out endogenous CesA genes.

[7] = system: fra5 (CesA7 P557T) plants; experiment: growth response of fra5 mutant to ES20; assay type: in vivo, Arabidopsis thaliana
Description: (§4) FIG. 6A. Seedlings of Wildtype and fra5 grown on growth media supplemented with DMSO or ES20. FIG. 6B. Seedlings of Wildtype and any1 grown on growth media supplemented with DMSO or ES20. FIGS. 6C, 6D, 6E and 6F depict quantification on the growth of wildtype, […] and any/in the presence or absence of ES20.
(§5) Due to the conservation of plant CesAs in their central cytoplasmic domains, we hypothesized that ES20 targeted multiple CesAs to inhibit growth. In order to test this hypothesis, we tested the response of fra5 and any/to ES20. The mutant fra5 carries a mutation of P557T in Arabidopsis thaliana CesA7. CesA7 P557 aligns to CesA6 P595. […] The mutant any/carries a mutation of D604N in Arabidopsis CesA1. D604 in CesA1 aligns to D605 in CesA6.

[8] = system: any1 (CesA1 D604N) plants; experiment: growth response of any1 mutant to ES20; assay type: in vivo, Arabidopsis
Description: as §4, §5

COc1ccc(C(=O)NC(=S)NNC(=O)c2ccccc2C)cc1 [ES20]
Kd [1]: 15.4 ± 5.9 µM | root phenotype after short-term treatment ([2]; 5 μM for 12 hours in liquid growth media): roots became swollen in the tip region | activity at 1 µM ([2]; 144 h, read-out: root length relative to plants grown on DMSO): ~25% | activity at 1 µM ([2]; read-out: root length relative to plants grown on normal media): ~20% | hypocotyl phenotype of seedlings grown under dark condition ([2]; dark-grown, dosage dependent): shorter and swollen hypocotyls | root growth arrest ([2]; wild type plants, 5 μM): completely arrests root growth | root phenotype of seedlings grown on media with compound ([2]; wildtype, dosage dependent): shorter and swollen roots | content of crystalline cellulose relative to seedlings grown in the absence of ES20 [3]: about 50% | growth inhibition of tomato (tomato): significantly inhibit the growth | growth inhibition of horseweed (horseweed): significantly inhibit the growth | tobacco pollen tube growth (tobacco pollen tube): inhibited tobacco pollen tube growth | trafficking of cargo proteins PIN2 and BRI1 [4]: did not significantly affect the trafficking | locations of general organelle markers (ER, Golgi, TGN) ([4]; 2 hours of 5 μM ES20 treatment (FIGS. 9A, 9B)): unaffected | density of plasma membrane localized CesA6 ([5]; root epidermal cells, short-term ES20 treatment): significantly reduced | numbers of SmaCCs that contain CesA6 ([5]; short-term ES20 treatment): significantly increased | CSC delivery to the plasma membrane (FRAP) ([5]; versus DMSO control): significantly lower than the DMSO control | activity at 1 µM [6]: ~80% | sensitivity of fra5 plants to ES20 [7]: reduced sensitivity to ES20 | sensitivity of any1 plants to ES20 [8]: less sensitive to ES20

From patent US20250340511A1, “CELLULOSE SYNTHASE INHIBITORS AS A NEW CLASS OF HERBICIDE AND NON-GMO CROPS THAT ARE RESISTANT TO THE HERBICIDE” (Purdue Research Foundation, priority 2017, published 2025)
